# Reference: patent publication EP0768085A1, “ANTIBACTERIAL AGENT” (DAIICHI PHARMACEUTICAL CO., LTD., priority 1994, dated 1996)
# Tests used:
# Format in all cases: cell-based
# [1] = test system: Staphylococcus aureus TI-1; test: Antibacterial activity (IC), broth microplate as in Example 4 (Example 5, Table 40); settings: TI1, 18 h
# Protocol: (§1) A suitable amount of a sample was dissolved in dimethylsulfoxide (DMSO), and the resultant solution was diluted with the same amount of sterilized distilled water to prepare a bulk sample of 1,000 µg/ml. Mueller-Hinton broth (product of DIFCO) was dispensed into each well of 96-well microplate. Thereafter, the bulk specimen was added to the first well of a row, and successively diluted (10-fold each time) with sterilized distilled water. Separately, a bacterial cell suspension for the test (Staphylococcus aureus 209-P) which had been cultured in the above-mentioned broth overnight at 37°C was inoculated to each well so that the final inoculation amount of 10^6 CFU/ml was attained. The final concentrations of the samples were 100, 10, and 1 µg/ml.
# (§2) The antibacterial action was evaluated by the inhibitory concentration (hereinafter abbreviated as IC) at which propagation of the bacteria cultured at 37°C for 18 hours was inhibited. Inhibition was determined by the turbidity of the medium. The expressions "IC≤100", "≤10", and "≤1" indicate that MIC-equivalent values obtained at the succesive […] dilution of the sample are 100-10 µg/ml, 10-1 µg/ml, and not more than 1 µg/ml, respectively. […] (In the subsequent Examples, the same rule applies correspondingly.) Table 39
# In a manner similar to that described in Example 4, antibacterial activity of the invention compound was determined. The bacterium used for the test was Staphylococcus aureus TI-1.
# [2] = test system: Staphylococcus aureus 209-P; test: Antibacterial activity (IC), Mueller-Hinton broth, 96-well microplate (Example 4, Table 39); settings: 37°C, 18 hours
# Protocol: as §1, §2
# [3] = test system: Streptococcus aureus (TI-1); test: Antibacterial activity (IC), agar as in Example 8 (Example 16, Table 49); settings: 18 h
# Protocol: as §2
# (§3) A suitable amount of a sample was dissolved in dimethylsulfoxide (DMSO), after which the resulting solution was diluted with the same amount of sterilized distilled water to prepare a bulk sample of 1,000 µg/ml. Separately, a bacterial liquid for the test (methicillin-resistant Staphylococcus aureus (MRSA) isolated from humans) which had been cultured in Mueller-Hinton broth (product of DIFCO) was prepared and inoculated to a Mueller-Hinton agar (product of DIFCO) containing the sample so that the final inoculation amount of 10^6 CFU/ml was achieved. The final concentrations of the samples were 100, 10, and 1 µg/ml.
# (§4) After culturing at 37°C for 18 hours, the antibacterial activity was evaluated in terms of IC in a manner similar to that described in Example 4.
# In a manner similar to that described in Example 8, antibacterial activity of the invention compound was determined. The bacterium used for the test was […] aureus (TI-1).
# [4] = test system: Staphylococcus aureus (209-P); test: Antibacterial activity (IC), agar as in Example 8 (Example 15, Table 48); settings: 18 h
# Protocol: as §2, §3, §4
# The bacterium used for the test was Staphylococcus aureus (209-P).
# [5] = test system: methicillin-resistant Staphylococcus aureus (MRSA) from humans; test: Antibacterial activity (IC), agar as in Example 8 (Example 19, Table 52); settings: 18 h
# Protocol: as §2, §3, §4
# In a manner similar to that described in Example 8, antibacterial activity of a variety of ketonitrile derivatives shown in Table 52 was measured. The bacterium used for the test was methicillin-resistant Staphylococcus aureus (MRSA) from humans.
# [6] = test system: Pasteurella multocida (Kobe-6); test: Antibacterial activity (IC), agar as in Example 8 (Example 17, Table 50); settings: 18 h, origin pig
# Protocol: as §2, §3, §4
# In a manner similar to that described in Example 8, antibacterial activity of the invention compound was determined. The bacterium used for the test was Pasteurella Kobe-6 (origin: pig, Pasteurella multocida).
# Pasteurella from fish = test: Antibacterial activity (IC), agar as in Example 8, media with 1.5% NaCl, 25°C (Example 20, Tables 53-55); settings: Pasteurella piscicida KP94-02
# Protocol: as §2, §3, §4
# (§5) In a manner similar to that described in Example 8, antibacterial activity of a variety of ketonitrile derivatives shown in Tables 53-55 was measured. The bacteria used for the test were Enterococcus and Pasteurella from fish. The culture conditions were such that the media contained 1.5% NaCl, and the culture temperature was 25°C.
# Enterococcus from fish = test: as above
# Protocol: as §2, §3, §4, §5
SMILES,MIC [1] [µg/mL],MIC [2] [µg/mL],MIC [4] [µg/mL],further results
CC(Oc1ccc(Oc2nc3ccccc3s2)cc1)C(=O)C(C#N)c1ccc(Cl)cc1Cl (stereo not shown) [Compound No. 11],10 to 100,10 to 100,–,–
N#CC(C(=O)COc1ccc(Oc2ccc(C(F)(F)F)cn2)cc1)c1cccc(Cl)c1 (stereo not shown) [Compound No. 13],10 to 100,10 to 100,–,–
CC(Oc1ccc(Oc2ccc(C#N)cc2F)cc1)C(=O)C(C#N)c1ccc(Cl)cc1Cl (stereo not shown) [Compound No. 31],10 to 100,10 to 100,–,–
"CC(Oc1ccc(Oc2ccc(C(F)(F)F)cc2Cl)cc1)C(=O)C(C#N)C(=O)N(C)c1ccccc1 (stereo not shown) [Compound No. 36, 4-[4-(2-chloro-4-trifluoromethylphenoxy)phenoxy]-2-methylphenylamidecarbonile-3-oxopentanitrile]",1 to 10,–,–,–
"CC(Oc1cccc(Oc2ccc(C(F)(F)F)cc2Cl)c1)C(=O)C(C#N)c1cccc(Br)c1 (stereo not shown) [Compound No. 104, 2-(3-bromophenyl)-4-[3-(2-chloro-4-trifluoromethylphenoxy)phenoxy]-3-oxopentanonitrile]",–,–,≤ 1,MIC [3]: ≤ 1 µg/mL; MIC ([5]; MRSA strain 891179): 1 to 10 µg/mL; MIC ([5]; MRSA strain 891185): 1 to 10 µg/mL; MIC ([5]; MRSA strain 891187): 1 to 10 µg/mL; MIC ([5]; MRSA strain 891192): 1 to 10 µg/mL; MIC ([5]; MRSA strain 900048): 1 to 10 µg/mL; MIC ([5]; MRSA strain 900056): 1 to 10 µg/mL; MIC [6]: 1 to 10 µg/mL
CC(Oc1ccc(Oc2nc(Cl)c(Cl)cc2Cl)cc1)C(=O)C(C#N)c1ccc(Cl)cc1Cl (stereo not shown) [compound 7],1 to 10,10 to 100,–,–
CC(Oc1ccc(Oc2ccc([N+](=O)[O-])cc2F)cc1)C(=O)C(C#N)c1ccc(Cl)cc1Cl (stereo not shown) [compound 29],10 to 100,10 to 100,–,–
CC(Oc1cc(Oc2ccc(C(F)(F)F)cc2Cl)ccc1[N+](=O)[O-])C(=O)C(C#N)C(=O)N1CCCCC1 (stereo not shown) [compound 135],–,–,–,MIC [6]: 10 to 100 µg/mL; MIC (Pasteurella from fish): 10 to 100 µg/mL; IC (Enterococcus from fish; Enterococcus Seriolicida HI): ≤100 (MIC-equivalent values obtained at the succesive 2-fold dilution of the sample are 100-10 µg/ml); IC (Enterococcus from fish; Enterococcus Seriolicida KG86050): ≤100 (MIC-equivalent values obtained at the succesive 2-fold dilution of the sample are 100-10 µg/ml); IC (Enterococcus from fish; Enterococcus Seriolicida MS89060): ≤100 (MIC-equivalent values obtained at the succesive 2-fold dilution of the sample are 100-10 µg/ml); IC (Enterococcus from fish; Enterococcus Seriolicida MS89064): ≤100 (MIC-equivalent values obtained at the succesive 2-fold dilution of the sample are 100-10 µg/ml); IC (Enterococcus from fish; Enterococcus Seriolicida MS89066): ≤100 (MIC-equivalent values obtained at the succesive 2-fold dilution of the sample are 100-10 µg/ml); IC (Enterococcus from fish; Enterococcus Seriolicida MS89068): ≤100 (MIC-equivalent values obtained at the succesive 2-fold dilution of the sample are 100-10 µg/ml); IC (Enterococcus from fish; Enterococcus Seriolicida SE94-001): ≤100 (MIC-equivalent values obtained at the succesive 2-fold dilution of the sample are 100-10 µg/ml); MIC (Enterococcus from fish; Enterococcus Seriolicida SE94-002): 10 to 100 µg/mL; IC (Enterococcus from fish; Enterococcus Seriolicida SE94-003): ≤100 (MIC-equivalent values obtained at the succesive 2-fold dilution of the sample are 100-10 µg/ml); IC (Enterococcus from fish; Enterococcus Seriolicida SE94-004): ≤100 (MIC-equivalent values obtained at the succesive 2-fold dilution of the sample are 100-10 µg/ml); IC (Enterococcus from fish; Enterococcus Seriolicida SE94-005): ≤100 (MIC-equivalent values obtained at the succesive 2-fold dilution of the sample are 100-10 µg/ml)
CC(Oc1cc(Oc2ccc(C(F)(F)F)cc2Cl)ccc1[N+](=O)[O-])C(=O)C(C#N)C(=O)N1CCOCC1 (stereo not shown) [compound 137],–,–,10 to 100,MIC [3]: 10 to 100 µg/mL; MIC [6]: 10 to 100 µg/mL
CC(Oc1cc(Oc2ccc(C(F)(F)F)cc2Cl)ccc1Cl)C(=O)C(C#N)c1ccc(Cl)cc1Cl (stereo not shown) [compound 151],–,–,≤ 1,MIC [3]: ≤ 1 µg/mL; MIC [6]: 10 to 100 µg/mL
CC(Oc1cc(Oc2ccc(C(F)(F)F)cc2Cl)ccc1Cl)C(=O)C(C#N)c1ccc(Cl)c(Cl)c1 (stereo not shown) [compound 152],–,–,≤ 1,MIC [3]: ≤ 1 µg/mL; MIC [6]: 1 to 10 µg/mL
CC(Oc1cc(Oc2ccc(C(F)(F)F)cc2Cl)ccc1Cl)C(=O)C(C#N)C(=O)N1CCCC1 (stereo not shown) [compound 169],–,–,10 to 100,MIC [3]: 10 to 100 µg/mL
CC(Oc1cc(Oc2ccc(C(F)(F)F)cc2Cl)ccc1Cl)C(=O)C(C#N)C(=O)N1CCCCC1 (stereo not shown) [compound 170],–,–,1 to 10,MIC [3]: 1 to 10 µg/mL; MIC [6]: 10 to 100 µg/mL
CC(Oc1cc(Oc2ccc(C(F)(F)F)cc2Cl)ccc1Cl)C(=O)C(C#N)C(=O)N1CCOCC1 (stereo not shown) [compound 172],–,–,10 to 100,–
CC(Oc1cc(Oc2ccc(C(F)(F)F)cc2Cl)ccc1Cl)C(=O)C(C#N)C(=O)N(C)c1ccccc1 (stereo not shown) [compound 175],–,–,1 to 10,–
CC(Oc1cccc(Oc2ccc(C(F)(F)F)cc2Cl)c1)C(=O)C(C#N)C(=O)N1CCCCC1 (stereo not shown) [compound 208],–,–,1 to 10,MIC [3]: 1 to 10 µg/mL

# Further lines, with some results ahead:
MIC [1] [µg/mL],MIC [2] [µg/mL],MIC [4] [µg/mL],SMILES,further results
10 to 100,10 to 100,–,CC(Oc1ccc(Oc2ccc(C#N)cc2F)cc1)C(=O)C(C#N)c1ccccc1 (stereo not shown) [Compound No. 30],–
–,1 to 10,–,"CC(Oc1ccc(Oc2ncc(C(F)(F)F)cc2Cl)cc1)C(=O)C(C#N)C(=O)N(Cc1ccccc1)Cc1ccccc1 (stereo not shown) [Compound No. 38, 4-[4-(3-chloro-5-trifluoromethylpyridyloxy)phenoxy]-2-dibenzylamidecarbonile-3-oxopentanitrile]",–
–,–,1 to 10,"CC(Oc1cccc(Oc2ccc(C(F)(F)F)cn2)c1)C(=O)C(C#N)c1ccc(Cl)c(Cl)c1 (stereo not shown) [Compound No. 102, 2-(3,4-dichlorophenyl)-3-oxo-4-[3-(5-trifluoromethyl-2-pyridyloxy)phenoxy]pentanonitrile]",MIC [3]: ≤ 1 µg/mL
–,–,10 to 100,"COc1ccc(C(C#N)C(=O)C(C)Oc2cccc(Oc3ccc(C(F)(F)F)cc3Cl)c2)cc1 (stereo not shown) [Compound No. 107, 4-[3-(2-chloro-4-trifluoromethylphenoxy)-phenoxy]-2-(4-methoxyphenyl)-3-oxopentanonitrile]",MIC [3]: 10 to 100 µg/mL
1 to 10,10 to 100,–,CC(Oc1ccc(Oc2ccc(C(F)(F)F)cn2)cc1)C(=O)C(C#N)c1cccc(C(F)(F)F)c1 (stereo not shown) [compound 8],–
1 to 10,10 to 100,–,N#CC(C(=O)COc1ccc(Oc2ncc(C(F)(F)F)cc2Cl)cc1)c1cccc(Cl)c1 (stereo not shown) [compound 12],–
1 to 10,10 to 100,–,CC(Oc1ccc(Oc2ncc(C(F)(F)F)cc2Cl)cc1)C(=O)C(C#N)c1ccccc1 (stereo not shown) [compound 18],–
10 to 100,10 to 100,–,CC(Oc1ccc(Oc2ncc(C(F)(F)F)cc2Cl)cc1)C(=O)C(C#N)c1cccs1 (stereo not shown) [compound 19],–
1 to 10,10 to 100,–,CC(Oc1ccc(Oc2ncc(C(F)(F)F)cc2Cl)cc1)C(=O)C(C#N)c1nc(Cl)cc(Cl)n1 (stereo not shown) [compound 21],–
–,10 to 100,–,CC(Oc1ccc(Oc2ncc(C(F)(F)F)cc2Cl)cc1)C(=O)C(C#N)c1c(Cl)cccc1Cl (stereo not shown) [compound 23],–
10 to 100,10 to 100,–,CC(Oc1ccc(Oc2ncc(C(F)(F)F)cc2Cl)cc1)C(=O)C(C#N)c1c(F)cccc1Cl (stereo not shown) [compound 24],–
10 to 100,10 to 100,–,CC(Oc1ccc(Oc2ncc(C(F)(F)F)cc2Cl)cc1)C(=O)C(C#N)c1ccc(F)cc1F (stereo not shown) [compound 25],–
10 to 100,10 to 100,–,CC(Oc1ccc(Oc2ncc(C(F)(F)F)cc2Cl)cc1)C(=O)C(C#N)c1cc(F)ccc1F (stereo not shown) [compound 26],–
10 to 100,–,–,CC(Oc1ccc(Oc2ncc(C(F)(F)F)cc2Cl)cc1)C(=O)C(C#N)c1c(F)cccc1F (stereo not shown) [compound 28],–
–,10 to 100,–,CCN(Cc1ccccc1)C(=O)C(C#N)C(=O)C(C)Oc1ccc(Oc2ncc(C(F)(F)F)cc2Cl)cc1 (stereo not shown) [compound 39],–
–,10 to 100,–,CC(Oc1ccc(Oc2ncc(C(F)(F)F)cc2Cl)cc1)C(=O)C(C#N)C(=O)N1CCCc2ccccc21 (stereo not shown) [compound 40],–
–,–,1 to 10,CC(Oc1cc(Oc2ccc(C(F)(F)F)cc2Cl)ccc1Cl)C(=O)C(C#N)c1ccccc1 (stereo not shown) [compound 156],MIC [6]: 10 to 100 µg/mL
–,–,≤ 1,CC(Oc1cccc(Oc2ccc(C(F)(F)F)cc2Cl)c1)C(=O)C(C#N)c1cccc(Cl)c1 (stereo not shown) [compound 207],MIC [3]: ≤ 1 µg/mL
